Here are results for four compounds from patent publication US20210100868A1, “COMPOSITIONS AND METHODS FOR TREATING OR PREVENTING GASTROINTESTINAL DAMAGE ASSOCIATED WITH NSAID THERAPY” (NORTH CAROLINA STATE UNIVERSITY, priority 2018, published 2021).

Experiment [1] concerns ischemic-injured porcine jejunum. Kind of experiment: Recovery of barrier function (transepithelial electrical resistance) in ischemic-injured porcine jejunum in Ussing chambers, with indomethacin. Type of experiment: cell-based, Yorkshire-cross pigs. The conditions noted are these: FIG. 1.
Source text: In order to determine whether Larazotide could function as a therapeutic agent that could stimulate intestinal tissue repair in the presence of a non-steroidal anti-inflammatory drug (NSAID), recovery of barrier function in ischemic-injured porcine jejunum was monitored in the presence of the NSAID indomethacin.
Specifically, Yorkshire-cross pigs of 6-8 weeks of age were anesthetized, followed by midline laparotomy and creation of a series of 10 cm intestinal loops commencing proximal to the ileum by ligating the intestinal lumen.
The local mesenteric vasculature was ligated to select treatment loops for a period of 45 minutes. Other loops were left as non-ischemic controls. The loops were subsequently resected, and the mucosal tissues were stripped in oxygenated (95% O2/5 % CO2) rings from the muscle layers in preparation of ex vivo incubation in Ussing chambers.
Select tissues (n=8) were pre-treated with indomethacin (5 μM) on both sides of the tissue, prior to receiving 0.1-10 μM Larazotide on the luminal surface after 30 minutes of incubation in the Ussing chambers.
Transepithelial electrical resistance (TER) was monitored in the tissues for 240 minutes.
The conditions of experiment [2]: clinical trials, cited from earlier work.
Experiment [3] has as its system tight junction. The experiment in a line: Tight junction regulator activity of larazotide fragments. The conditions noted are these: for Activity of full length larazotide when mixed with the two fragments: GVLVQPG and VLVQPG mixed with full length larazotide; for Activity as tight junction regulators: fragment alone.

Where no end group is shown, it is not given here.

Consider GGVLVQPG [Larazotide], for which, in experiment [1] (1 μM larazotide on luminal surface, in the presence of indomethacin (5 μM), monitored for 240 minutes), the “Transepithelial electrical resistance (TER)” value was “increased TER”. In addition, the “Clinical activity at higher doses” value in experiment [2] (higher doses (e.g., 1 mg and 2 mg doses)) is reported as “attenuation of activity, or no activity at all”. Also, the “Clinical benefit on intestinal disease symptoms” value in experiment [2] (lower doses (e.g., 0.5 mg dose)) is “benefit at reducing intestinal disease symptoms”.

For `COc1ccc2c(c1)c(CC(=O)O)c(C)n2C(=O)c1ccc(Cl)cc1` [indomethacin], the “Transepithelial electrical resistance (TER)” value in experiment [1] (indomethacin applied without larazotide) is “decline in TER”.

With “GVLVQPG [larazotide-derived fragment missing an N-terminal glycine residue]”, in experiment [3], the “Activity of full length larazotide when mixed with the two fragments” value is “activity is completely abolished” and the “Activity as tight junction regulators” value is “largely inactive”.

“VLVQPG [larazotide-derived fragment missing N-terminal glycine residues]”: in experiment [3], the “Activity of full length larazotide when mixed with the two fragments” value was “activity is completely abolished” and the “Activity as tight junction regulators” value is “largely inactive”.
